# In patent US20250369975A1, “METHOD FOR DETECTING TRANSTHYRETIN TETRAMER, AND METHOD FOR EVALUATING STABILITY” (SYSMEX CORPORATION, priority 2024, published 2025):
# Where two headings read alike, the source gives them in different places.
# Assays:
# Assay type in all cases: binding
# [1] = tested on: TTR tetramer (recombinant human transthyretin WT, T119M, V30M); conditions: probe solution 10 μM; recombinant TTR 100 ng/mL; FIG. 14A-D
# [2] = tested on: TTR tetramer (recombinant human transthyretin WT, T119M, V30M); conditions: probe solution 0.3 μM immobilized on solid phase; recombinant TTR 100 ng/mL; FIG. 16A-B
# [3] = target: T1, TTR tetramer in blood sample (serum, plasma) (Homo sapiens, UniProt P02766); assay: Example 2: same format, serially diluted serum and plasma samples; conditions: probe immobilized on solid phase
# T1 construct: serially diluting commercially available serum (ProMedex Corporation, 12011378); tissue ProMedex Corporation (serum); host or cells: serum and plasma mix
# Description: (§1) (1.2) Blood sample Six serum samples were prepared by serially diluting commercially available serum (ProMedex Corporation, 12011378) with 1% BSA/0.5% casein/PBS. Also six plasma samples were prepared by serially diluting a commercially available plasma mix with 1% BSA/0.5% casein/PBS.
# The sample containing the recombinant TTR and the blood sample were the same as in Example 1. Probes C5 and C6 were diluted with 1% BSA/0.5% casein/PBS, to prepare a probe solution (0.3 μM). An ALP-labeled polyclonal anti-TTR antibody is used as the labeled antibody capable of binding to the TTR monomer. The labeled antibody was prepared by labeling a polyclonal rabbit anti-human prealbumin antibody (Agilent, A0002) with ALP by a usual method. […]
# To each well of the plate, 300 μL of a blocking solution (1% BSA/0.5% casein/PBS) was added, followed by incubation for 1 hour at room temperature. […] 100 μL of a substrate solution of ALP was added to each well, and after 15 minutes, a chemiluminescence signal was measured with a plate reader. The samples were measured twice, and an average value of the two measured values was acquired. Results of measurement of the sample that contains the recombinant TTR are illustrated in FIGS. 16A and B. Measured results of the blood samples are illustrated in FIGS. 17A to D.
# [4] = tested on: TTR tetramer (recombinant human transthyretin WT, T119M, V30M); conditions: probe solution 0.2 μM mixed with sample; FIG. 18A-B
# [5] = target: T2, TTR tetramer in plasma sample (Homo sapiens, UniProt P02766); assay: Example 3: same format, serially diluted plasma samples; conditions: probe solution 0.2 μM, FIG. 19B
# T2 construct: serially diluting commercially available serum (ProMedex Corporation, 12011378); tissue ProMedex Corporation (serum); host or cells: serum and plasma mix
# Description: as §1
# The sample containing the recombinant TTR and the plasma sample were the same as in Example 1. Probes C5 and C6 were diluted with 1% BSA/0.5% casein/PBS, to prepare a probe solution (0.2 μM). The same ALP-labeled polyclonal anti-TTR antibody as in Example 2 was diluted 3200 times with 1% BSA/0.1% goat IgG/0.01% mouse IgG/0.005% scavenger ALP/PBS, to prepare a labeled antibody solution. The substrate solution and solid phase of ALP were the same as those in Example 2.
# 150 μL of each sample and 150 μL of the probe solution were mixed, and incubated at room temperature for 1 hour. As a control (blank), instead of the sample, 150 μL of 1% BSA/0.5% casein/PBS and 150 μL of the probe solution were mixed, and incubated in the same manner. […] 100 μL of a substrate solution of ALP was added to each well, and after 15 minutes, a chemiluminescence signal was measured with a plate reader. The samples were measured twice, and an average value of the two measured values was acquired. […]
# [6] = target: T3, TTR tetramer (wild-type recombinant human transthyretin) (Homo sapiens, UniProt P02766); assay: Example 5: HISCL-5000 automated immunoassay, tagged probe, streptavidin magnetic particle, ALP-labeled monoclonal anti-TTR antibody; conditions: R1 reagent 0.3 μM probe; WT TTR 10 and 100 μg/mL; FIG. 21B
# T3 construct: purchased AlexoTech T-500-10
# Description: A sample containing wild-type (WT) recombinant TTR at respective concentrations of 10 μg/mL and 100 μg/mL was prepared by diluting transthyretin (wild-type) human, recombinant (AlexoTech, T-500-10) with 1% BSA/0.5% casein/PBS.
# (2.1) R1 reagent As R1 buffer, a […] buffer (pH 8.0±0.05) containing 1% BSA, 0.15 g/L mouse IgG, 0.1% sodium azide, […], 0.1% Tween® 20 and 20 mg/mL alkaline phosphatase (AP) mutein was prepared. Probe C5 was diluted with R1 buffer, to prepare R1 reagent (0.1 μM) containing probe C5. Probe C6 was also diluted with R1 buffer, to prepare R1 reagent (0.3 μM) that contains probe C6.
# As R3 buffer, a 0.1 mol/L HEPES buffer (pH 8.0±0.05) containing 1% BSA, 0.15 g/L murine IgG, 0.1% sodium azide, 0.15 mol/L NaCl, 0.1% Tween20.20 mg/mL AP mutein, 1.0 mmol/L MgCl, and 0.1 mmol/L ZnCl of 2 was prepared. An ALP-labeled monoclonal anti-TTR antibody was used as the labeled antibody capable of binding to the TTR monomer. […]
# 50 μL of each R1 reagent was added to the cuvette, to which 30 μL of the sample was then added, followed by incubation for 2.5 minutes. […] Five minutes later, the chemiluminescence signal was measured with HISCL-5000. As a control (blank), the sample was similarly measured with use of 30 μL of 1% BSA/0.5% casein/PBS instead of the sample. […]
compound,measurement,setting,value
"O=C(CCCCC1SCC2NC(=O)NC21)NCCOCCOCCOCCOCCOCCOCCOCCOCCOCCOCCOCCOCCC(=O)Nc1ccc(/C=C/c2cc(Br)c(O)c(Br)c2)cc1 (stereo not shown) [Probe C6, Biotin-PEG12-Stilbene Derivative]","chemiluminescence signal measured values of WT, T119M and V30M samples versus blank",[1],results similar to those of FIG. 14 A
same,"chemiluminescence signal measured values of WT, T119M and V30M samples versus blank",[2],a result similar to that of FIG. 16 A
same,signal measured value of the plasma sample versus dilution factor,"[3]; serially diluted plasma, FIG. 17D",similarly increased according to the dilution factor
same,signal measured value of the serum sample versus dilution factor,"[3]; serially diluted serum, FIG. 17C",increased according to the dilution factor
same,"chemiluminescence signal measured values of WT, T119M and V30M samples versus blank",[4],a result similar to that of FIG. 18 A
same,signal measured value of the plasma sample versus dilution factor,[5],increased according to the dilution factor
same,signal measured value versus level of recombinant TTR in the sample,[6],increased corresponding to the level of the recombinant TTR in the sample
